The term IC50 denotes the concentration that gives 50% inhibition. Low readings indicate inhibition by little substance, high ones a need for much substance.

IC50, Growth and CC50 data for three compounds are collected here from ChEMBL document CHEMBL1136281, “Design and synthesis of novel chrysene-linked pyrrolo[2,1-c][1,4]-benzodiazepine hybrids as potential DNA-binding agents” (Bioorg Med Chem Lett, 2003).

In one assay the test system is PC-6. Nature of the assay: In vitro cytotoxicity was evaluated in PC6 cell line. The class given is functional, cell-based. The note with it: Homo sapiens.
The subject of the next assay is NCI-H460. Nature of the assay: In vitro primary anticancer activity was determined in NCI-H460 cell line (Lung) at the concentration of […]. The assay is classed as functional, Homo sapiens.
The test system of another assay is SF-268. Nature of the assay: In vitro primary anticancer activity was determined in SF-268 cell line (CNS) at the concentration of […]. The assay is classed as functional, Homo sapiens.
The subject of another assay is MCF7. Nature of the assay: In vitro primary anticancer activity was determined in MCF-7 cell line (breast) at the concentration of […]. The class given is functional, Homo sapiens.
The subject of a further assay is NCI-H226. Nature of the assay: Anticancer activity against one non-small cell lung cancer (NCI-H226 cell line). The class given is functional. The conditions noted are these: Homo sapiens, read-out: LC50 (the source's name).
Another assay has as its system UACC-62. Nature of the assay: Anticancer activity against one melanoma cancer (UACC-62 cell line). The class given is functional. The conditions noted are these: Homo sapiens, read-out: LC50 (the source's name).
A further assay has as its system A498. Nature of the assay: Anticancer activity against one renal cancer (A498 cell line). The note with it: Homo sapiens, read-out: LC50 (the source's name). The assay is classed as functional.

The compound `COc1cc2c(cc1O)N=C[C@@H]1CCCN1C2=O` registered an IC50 with PC-6 of 0.33 µM.

Regarding `COc1cc2c(cc1OCCCC(=O)Nc1cc3c4ccccc4ccc3c3ccccc13)N=C[C@@H]1CCCN1C2=O`, the values for the Growth in the assay on NCI-H460, in the assay on SF-268 and with MCF7 were 105%, 121% and 56%, respectively.

Turning to `COc1cc2c(cc1OCCCCC(=O)Nc1cc3c4ccccc4ccc3c3ccccc13)N=C[C@@H]1CCCN1C2=O`, the Growth in the assay on NCI-H460 was 0%; with SF-268, 12%; with MCF7, 1%. Further, the CC50 in the assay with NCI-H226 was determined as 4.5 µM; with UACC-62, 4.07 µM; with A498 it was 6.29 µM.
